For assay [1], the system named is Staphylococcus carnosus. Particulars: before femB mutation; cited from earlier work.
Assay [2] has as its system Staphylococcus carnosus femB mutant. Conditions: cited from earlier work.
A short description of assay [3]: NMR CSP residual binding of SH3b mutant domains to P4 ligand. Particulars: 32 equivalents.
Assay [4] is described as follows: NMR CSP residual binding of SH3b mutant domains to G5 ligand. Conditions: 32 equivalents.

A word on the MIC: it is the lowest concentration that inhibits growth of the organism.

Take “lysostaphin: bacteriolytic enzyme produced and secreted by Staphylococcus simulans biovar staphylolyticus”: the results for the minimum inhibitory concentration (MIC) in assay [1] and in assay [2] (femB mutant) were 0.01 µg/mL and 32 µg/mL, respectively. The “increase in the MIC values associated with femB mutation” value in assay [2] (femB mutant vs parent) is recorded as 3000 fold.

B1: R427M: His-tagged lysostaphin SH3b domain with R427M substitution, for NMR (protein)
chain: SESASFTPNTDIITMTTGPFRSMPQSGVLKAGQTIHYDEVMKQDGHVWVGYTGNSGQRIYLPVRTWNKS
modifications: left off: His-tag, N-terminal, kept
Take B1: the “residual binding (ratio of chemical shift changes of mutant to WT, averaged over all amino acids)” value in assay [3] was determined as 1.6%.

B2: W489L: His-tagged lysostaphin SH3b domain with W489L substitution, for NMR (protein)
chain: SESASFTPNTDIITRTTGPFRSMPQSGVLKAGQTIHYDEVMKQDGHVWVGYTGNSGQRIYLPVRTWNKSTNTLGVLL
modifications: left off: His-tag, N-terminal, kept
For the molecule B2, in assay [3], the “residual binding (ratio of chemical shift changes of mutant to WT, averaged over all amino acids)” value worked out at 6.6%.

B3: N405A: His-tagged lysostaphin SH3b domain with N405A substitution, for NMR (protein)
chain: AKYGTLYKSESASFTPNTDIITRTTGPFRSMPQSGVLKAGQTIHYDEVMKQDGHVWVGYTGNSGQRIYLPVRTWNKS
modifications: left off: His-tag, N-terminal, kept
As for B3, the “residual binding (ratio of chemical shift changes of mutant to WT, averaged over all amino acids)” value in assay [4] is recorded as 16%.

(Values after paper PMC6920042 (Nature chemical biology, 2019).)
